Test results taken from US9221765B2, “Inhibition and dispersion of bacterial biofilms with benzimidazole derivatives” (North Carolina State University, priority 2009, dated 2015).
Counter-ions that a name gives are not always drawn.

Key:
S. epidermidis = test: Inhibition of S. epidermidis biofilm formation (crystal violet); assay type: cell-based, Staphylococcus epidermidis; details: Staphylococcus epidermidis
Procedure: (§1) A dose-response study was then initiated in which both the IC50 and EC50 value of each compound towards the bacterial strains were determined (Table 1). Here, IC50 is defined as the concentration of compound that inhibits 50% biofilm development while EC50 is defined as the concentration of compound that disperses 50% of a pre-formed biofilm.
(§2) Procedure to Determine the Inhibitory Effect of Test Compounds on E. faecium, MRSA, S. epidermidis, PAO1 and MDRAB Biofilm Formation:
(§3) Inhibition assays were performed by taking an overnight culture of bacterial strain and subculturing it at an OD600 of 0.01 into the necessary media (brain heart infusion for E. faecium, tryptic soy broth with a 0.5% glucose supplement (TSBG) for MRSA, Luria-Bertani (LB) media for MDRAB, Luria-Bertani media without NaCl (LBNS) for PAO1 and tryptic soy broth with a 0.5% glucose supplement and a 3.0% NaCl supplement (TGN) for S. epidermidis. Stock solutions of predetermined concentrations of the test compound were then made in the necessary media. These stock solutions were aliquoted (100 μL) into the wells of the 96-well PVC microtiter plate. Sample plates were then wrapped in GLAD Press n′ Seal® followed by an incubation under stationary conditions for 24 h at 37° C. After incubation, the media was discarded from the wells and the plates were washed thoroughly with water. Plates were then stained with 100 μL of 0.1% solution of crystal violet (CV) and then incubated at ambient temperature for 30 min. Plates were washed with water again and the remaining stain was solubilized with 200 μL of 95% ethanol. A sample of 125 μL of solubilized CV stain from each well was transferred to the corresponding wells of a polystyrene microtiter dish. Biofilm inhibition was quantitated by measuring the OD540 of each well in which a negative control lane wherein no biofilm was formed served as a background and was subtracted out.
as §3, with “2-(2-amino-1H-benzo[d]imidazol-6-ylcarbamoyl)-3,4,5,6-tetrachlorobenzoic acid hydrochloride” for “test compound”, “media. Samples were then doped with 10.0 μM FeSO4 with samples with no test compound to examine effects of 10.0 μM FeSO4 on biofilm formation.” for “media.”

MRSA [1] = test: Dispersion of preformed MRSA biofilm; assay type: cell-based, Staphylococcus aureus; details: concentration that disperses 50% of a pre-formed biofilm
Procedure: as §1
Procedure to Determine the Dispersal Effect of Test Compounds on E. faecium, MRSA and S. epidermidis Preformed Biofilms:
Dispersion assays were performed by taking an overnight culture of bacterial strain and subculturing it at an OD600 of 0.01 into the necessary media (brain heart infusion for E. faecium, tryptic soy broth with a 0.5% glucose supplement (TSBG) for MRSA and tryptic soy broth with a 0.5% glucose supplement and a 3.0% NaCl supplement (TGN) for S. epidermidis. The resulting bacterial suspension was aliquoted (100 μL) into the wells of a 96-well PVC microtiter plate. Plates were then wrapped in GLAD Press n′ Seal® followed by an incubation under stationary conditions at ambient temperature to establish the biofilms. After 24 h, the media was discarded from the wells and the plates were washed thoroughly with water. Stock solutions of predetermined concentrations of the test compound were then made in the necessary media. These stock solutions were aliquoted (100 μL) into the wells of the 96-well PVC microtiter plate with the established biofilms. Media alone was added to a subset of the wells to serve as a control. Sample Plates were then incubated for 24 h at 37° C. After incubation, the media was discarded from the wells and the plates were washed thoroughly with water. Plates were then stained with 100 μL of 0.1% solution of crystal violet (CV) and then incubated at ambient temperature for 30 min. Plates were washed with water again and the remaining stain was solubilized with 200 μL of 95% ethanol. A sample of 125 μL of solubilized CV stain from each well was transferred to the corresponding wells of a polystyrene microtiter dish. Biofilm dispersion was quantitated by measuring the OD540 of each well in which a negative control lane wherein no biofilm was formed served as a background and was subtracted out.

[2] = 1H NMR binding control experiment with FeSO4; details: 0, 0.5, or 1.0 equivalents FeSO4
Procedure: (§4) Given this Zn(II)-dependence, the ability of 3 to bind zinc directly was determined to ascertain if the mechanism was potentially occurring via a Zn(II)-binding mechanism. To answer this question, an ^1H NMR binding experiment was performed in which the chemical shifts of 3 were measured in the presence of 0 equivalents, 0.5 equivalents, and 1.0 equivalents ZnCl2. […] As a control, the same experiment was performed with FeSO4.

[3] = tested on: vancomycin-resistant Enterococcus faecium (VRE); test: Inhibition of VRE (E. faecium) biofilm formation (crystal violet); assay type: cell-based
Procedure: as §1, §2, §3
as §3, with “2-(2-amino-1H-benzo[d]imidazol-6-ylcarbamoyl)-3,4,5,6-tetrachlorobenzoic acid hydrochloride” for “test compound”, “media. Samples were then doped with 10.0 μM FeSO4 with samples with no test compound to examine effects of 10.0 μM FeSO4 on biofilm formation.” for “media.”

[4] = Divalent zinc binding via 1H NMR spectroscopy; details: 0, 0.5, 1.0 equivalents ZnCl2; DMSO
Procedure: as §4
Procedure to Determine the Divalent Zinc Binding Effects of Test Compounds via ^1H NMR Spectroscopy:
^1H NMR Spectra were obtained of the test compounds in DMSO on a 400 MHz NMR in the absence and in the presence of one equivalent of ZnCl2. 2-(2-amino-1H-benzo[d]imidazol-5-ylcarbamoyl)-3,4,5,6-tetrachlorobenzoic acid hydrochloride was tested at a 228 mM. 2,3,4,5-tetrachloro-6-(phenylcarbamoyl)benzoic acid was tested at 275 mM. 1H-benzo[d]imidazol-2-amine hydrochloride was tested at 649 mM.

MRSA [5] = test: Inhibition of MRSA biofilm formation (crystal violet); assay type: cell-based, Staphylococcus aureus; details: Staphylococcus aureus
Procedure: as §1, §2, §3
as §3, with “2-(2-amino-1H-benzo[d]imidazol-6-ylcarbamoyl)-3,4,5,6-tetrachlorobenzoic acid hydrochloride” for “test compound”, “media. Samples were then doped with 10.0 μM FeSO4 with samples with no test compound to examine effects of 10.0 μM FeSO4 on biofilm formation.” for “media.”

**Q.** Which IC50 (S. epidermidis) does the source give for `Nc1nc2ccc(NC(=O)c3c(Cl)c(Cl)c(Cl)c(Cl)c3C(=O)O)cc2[nH]1` [Compound 3, 2-(2-amino-1H-benzo[d]imidazol-6-ylcarbamoyl)-3,4,5,6-tetrachlorobenzoic acid hydrochloride] here?
**A.** Its IC50 is 0.57 µM.

**Q.** And the EC50 (MRSA [1]; Staphylococcus aureus)?
**A.** The EC50 was 2.92 µM.

**Q.** And the EC50 (MRSA [1]; hydrochloride)?
**A.** Its EC50 is 2.9 µM.

**Q.** And the “change in NMR signal with FeSO4” value [2]?
**A.** Its value is “No change”.

**Q.** What about the IC50 [3] of the same compound?
**A.** Its IC50 is 1.4 µM.

**Q.** What about the “zinc binding, change of 1H NMR signals” value [4] of the same compound?
**A.** Its value is “directly binding ZnCl2”.

**Q.** What about the IC50 (MRSA [5]) of the same compound?
**A.** Its IC50 is 0.86 µM.

**Q.** And the IC50 (MRSA [5]; concentration that inhibits 50% biofilm development)?
**A.** The IC50 was 0.89 ± 0.01 µM.
